This assay concerns the target T1, C5AR1 (Homo sapiens, UniProt P21730).
T1 construct: host or cells: CHO-K1
T1 sequence (P21730 1-350): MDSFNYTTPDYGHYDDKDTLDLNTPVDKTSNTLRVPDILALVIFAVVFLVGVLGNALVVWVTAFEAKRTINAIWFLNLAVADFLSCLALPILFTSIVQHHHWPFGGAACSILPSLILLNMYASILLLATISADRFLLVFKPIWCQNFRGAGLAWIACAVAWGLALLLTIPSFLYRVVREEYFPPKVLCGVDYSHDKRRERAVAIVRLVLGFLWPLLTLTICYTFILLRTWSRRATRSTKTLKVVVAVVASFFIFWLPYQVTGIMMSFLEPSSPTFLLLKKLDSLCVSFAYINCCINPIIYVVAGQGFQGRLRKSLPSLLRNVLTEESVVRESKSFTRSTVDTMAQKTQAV
Kind of assay: hC5a DISCO IC50 assay (PathHunter beta-arrestin, antagonist mode). Format: cell-based. As to conditions: CHO-K1 C5AR1 beta-arrestin cell line; antagonist vs 1-10 nM C5a agonist; geometric mean values; read-out: C5aR IC50. How it is done: II. Biological Assays In Vitro Assay hC5a DISCO IC50 Assay
5 μl Antagonist at 6-fold end concentration or DMSO control is added to assay medium and subsequently 5 μl 1-10 nM C5a agonist at 6 fold end concentration. Cells are centrifuged for 1 min at 1000 rpm and incubated for 1.5 hour in at 37° C. Plates are equilibrated at room temperature for several minutes before adding 12 μl/well Detection Reagent (PathHunter Detection Kit, DiscoverX, Cat #93-0001). Plates are centrifuged for 1 min at 1000 rpm and incubated for 45 minutes at RT before being measured on a Fluostar Optima, BMG Labtech. IC50 values are calculated from a serial dilution range of antagonist using inhouse software and given in nmol/l.
The calculated IC50 values may fluctuate depending on the daily cellular assay performance. Fluctuations of this kind are known to those skilled in the art. Average IC50 values from several measurements are given as geometric mean values.
On to `COc1ncnc(OC)c1N1CCC(n2c(=O)n(Cc3ccccc3C(F)(F)F)c3c(OC)cccc32)CC1` [Example 250, 1-[1-(4,6-Dimethoxy-pyrimidin-5-yl)-piperidin-4-yl]-4-methoxy-3-(2-trifluoromethyl-benzyl)-1,3-dihydro-benzoimidazol-2-one], for which the IC50 was determined as 853 nM.

For the compound `COc1cccc2c1n(Cc1ccccc1C(F)(F)F)c(=O)n2C1CC2CC1CN2c1c(C)cccc1F` (stereo not shown) [Example 190, 1-[2-(2-Fluoro-6-methyl-phenyl)-2-aza-bicyclo[2.2.1]hept-5-yl]-4-methoxy-3-(2-trifluoromethyl-benzyl)-1,3-dihydro-benzoimidazol-2-one], the 50% inhibitory concentration (IC50) was determined as 118 nM.

For the compound `COc1cccc2c1n(Cc1cncnc1C(F)(F)F)c(=O)n2C1CCN(c2c(F)cccc2C#N)CC1` [Example 117, 3-Fluoro-2-{4-[4-methoxy-2-oxo-3-(4-trifluoromethyl-pyrimidin-5-ylmethyl)-2,3-dihydro-benzoimidazol-1-yl]-piperidin-1-yl}-benzonitrile], the IC50 stood at 308 nM.

With `COc1cccc2c1n(Cc1ccccc1C(F)(F)F)c(=O)n2C1CCCN(c2c(C)cccc2C)CC1` (stereo not shown) [Example 185, 1-[1-(2,6-Dimethyl-phenyl)-azepan-4-yl]-4-methoxy-3-(2-trifluoromethyl-benzyl)-1,3-dihydro-benzoimidazol-2-one], the IC50 is 36 nM.

`COc1cccc2c1n(Cc1ccncc1C(F)(F)F)c(=O)n2C1CCN(c2c(F)cccc2F)CC1` [Example 74, 1-[1-(2,6-Difluoro-phenyl)-piperidin-4-yl]-4-methoxy-3-(3-trifluoromethyl-pyridin-4-ylmethyl)-1,3-dihydro-benzoimidazol-2-one]: the IC50 stood at 1330 nM.

Regarding `COc1cccc2c1n(Cc1cncnc1C(C)C)c(=O)n2C1CCN(c2c(C)cccc2F)CC1` [Example 192, 1-[1-(2-Fluoro-6-methyl-phenyl)-piperidin-4-yl]-3-(4-isopropyl-pyrimidin-5-ylmethyl)-4-methoxy-1,3-dihydro-benzoimidazol-2-one], the IC50 was found to be 42 nM.

As to `COc1cccc2c1n(Cc1ccccc1C(F)(F)F)c(=O)n2C1CCN(c2ccccc2OC2COC2)CC1` [Example 242, 4-Methoxy-1-{1-[2-(oxetan-3-yloxy)-phenyl]-piperidin-4-yl}-3-(2-trifluoromethyl-benzyl)-1,3-dihydro-benzoimidazol-2-one], the IC50 was found to be 74 nM.

Turning to `COc1cccc2c1n(Cc1ccccc1C(F)(F)F)c(=O)n2C1CCN(c2c(C=O)c(C3CC3)nn2C)CC1` [Example 14, 3-Cyclopropyl-5-{4-[4-methoxy-2-oxo-3-(2-trifluoromethyl-benzyl)-2,3-dihydro-benzoimidazol-1-yl]-piperidin-1-yl}-1-methyl-1H-pyrazole-4-carbaldehyde], the IC50 stood at 216 nM.

With `COc1cccc2c1n(Cc1ccccc1C(F)(F)F)c(=O)n2[C@@H]1CCN(c2c(F)cccc2F)C1` [Example 7, 1-[(R)-1-(2,6-Difluoro-phenyl)-pyrrolidin-3-yl]-4-methoxy-3-(2-trifluoromethyl-benzyl)-1,3-dihydro-benzoimidazol-2-one], the IC50 worked out at 11 nM.

Take `COc1nccc2c1n(Cc1ccccc1C(F)(F)F)c(=O)n2[C@@H]1CCN(C(=O)OC(C)(C)C)C1` [Example 39, (R)-3-[4-Methoxy-2-oxo-3-(2-trifluoromethyl-benzyl)-2,3-dihydro-imidazo[4,5-c]pyridin-1-yl]-pyrrolidine-1-carboxylic acid tert-butyl ester]: the IC50 is 2430 nM.

For the compound `COc1cccc2c1n(Cc1ccccc1C(F)(F)F)c(=O)n2[C@@H]1CCN(c2c(F)cccc2CCCN2CCOCC2)C1` [Example 162, 1-{(R)-1-[2-Fluoro-6-(3-morpholin-4-yl-propyl)-phenyl]-pyrrolidin-3-yl}-4-methoxy-3-(2-trifluoromethyl-benzyl)-1,3-dihydro-benzoimidazol-2-one], the IC50 was determined as 135 nM.

On to `COc1cccc2c1n(Cc1ccccc1C(F)(F)F)c(=O)n2C1CCN(C(=O)OC(C)(C)C)C(C)C1` (stereo not shown) [Example 144, 4-[4-Methoxy-2-oxo-3-(2-trifluoromethyl-benzyl)-2,3-dihydro-benzoimidazol-1-yl]-2-methyl-piperidine-1-carboxylic acid tert-butyl ester], for which the IC50 was found to be 312 nM.

Regarding `COc1ccccc1Cn1c(=O)n([C@@H]2CCN(c3c(C)cccc3F)C2)c2ccnc(OC)c21` [Example 78, 1-[(R)-1-(2-Fluoro-6-methyl-phenyl)-pyrrolidin-3-yl]-4-methoxy-3-(2-methoxy-benzyl)-1,3-dihydro-imidazo[4,5-c]pyridin-2-one], the IC50 was 121 nM.

As for `COc1cccc2c1n(Cc1cnccc1C(F)(F)F)c(=O)n2C1CCN(C(=O)OC(C)(C)C)CC1` [Example 53, 4-[4-Methoxy-2-oxo-3-(4-trifluoromethyl-pyridin-3-ylmethyl)-2,3-dihydro-benzoimidazol-1-yl]-piperidine-1-carboxylic acid tert-butyl ester], the IC50 stood at 1840 nM.

`Cc1cccc(F)c1N1CC[C@@H](n2c(=O)n(Cc3ccccc3C(F)(F)F)c3c(OC4COC4)nccc32)C1` [Example 127, 1-[(R)-1-(2-Fluoro-6-methyl-phenyl)-pyrrolidin-3-yl]-4-(oxetan-3-yloxy)-3-(2-trifluoromethyl-benzyl)-1,3-dihydro-imidazo[4,5-c]pyridin-2-one]: the IC50 is 17 nM.

In the case of `COc1cccc2c1n(Cc1ccccc1C(F)(F)F)c(=O)n2C1CCN(c2c(C)cccc2F)CC1C` (stereo not shown) [Example 147, 1-[1-(2-Fluoro-6-methyl-phenyl)-3-methyl-piperidin-4-yl]-4-methoxy-3-(2-trifluoromethyl-benzyl)-1,3-dihydro-benzoimidazol-2-one], the IC50 amounted to 20 nM.

In the case of `COc1nccnc1Cn1c(=O)n([C@@H]2CCN(c3c(F)cccc3C#N)C2)c2cccc(OC)c21` [Example 112, 3-Fluoro-2-{(R)-3-[4-methoxy-3-(3-methoxy-pyrazin-2-ylmethyl)-2-oxo-2,3-dihydro-benzoimidazol-1-yl]-pyrrolidin-1-yl}-benzonitrile], the IC50 turned out to be 511 nM.

Regarding `Cc1cccc(F)c1N1CC[C@@H](n2c(=O)n(Cc3ccccc3C(F)(F)F)c3c(=O)[nH]ccc32)C1` [Example 57, 1-[(R)-1-(2-Fluoro-6-methyl-phenyl)-pyrrolidin-3-yl]-3-(2-trifluoromethyl-benzyl)-3,5-dihydro-1H-imidazo[4,5-c]pyridine-2,4-dione], the IC50 amounted to 89 nM.

`COc1cccc2c1n(Cc1nccnc1C(F)(F)F)c(=O)n2C1CCN(c2c(F)cccc2C#N)CC1` [Example 96, 3-Fluoro-2-{4-[4-methoxy-2-oxo-3-(3-trifluoromethyl-pyrazin-2-ylmethyl)-2,3-dihydro-benzoimidazol-1-yl]-piperidin-1-yl}-benzonitrile]: the IC50 was 231 nM.

As to `COc1ccccc1Cn1c(=O)n([C@@H]2CCN(c3c(C)cccc3C)C2)c2cccc(OC)c21` [Example 67, 1-[(R)-1-(2,6-Dimethyl-phenyl)-pyrrolidin-3-yl]-4-methoxy-3-(2-methoxy-benzyl)-1,3-dihydro-benzoimidazol-2-one], the IC50 turned out to be 36 nM.

Regarding `Cc1cccc(F)c1N1CC[C@@H](n2c(=O)n(Cc3ccccc3C(F)(F)F)c3c(OCC(O)CO)cccc32)C1` (stereo partly drawn) [Example 152, 4-(2,3-Dihydroxy-propoxy)-1-[(R)-1-(2-fluoro-6-methyl-phenyl)-pyrrolidin-3-yl]-3-(2-trifluoromethyl-benzyl)-1,3-dihydro-benzoimidazol-2-one], the IC50 amounted to 38 nM.

Turning to `Cc1cccc(C)c1N1CC[C@@H](n2c(=O)n(Cc3ccccc3C(F)(F)F)c3c(=O)[nH]ccc32)C1` [Example 93, 1-[(R)-1-(2,6-Dimethyl-phenyl)-pyrrolidin-3-yl]-3-(2-trifluoromethyl-benzyl)-3,5-dihydro-1H-imidazo[4,5-c]pyridine-2,4-dione], the IC50 was found to be 149 nM.

Turning to `COc1nccnc1Cn1c(=O)n(C2CCN(c3c(F)cccc3C#N)CC2)c2cccc(OC)c21` [Example 97, 3-Fluoro-2-{4-[4-methoxy-3-(3-methoxy-pyrazin-2-ylmethyl)-2-oxo-2,3-dihydro-benzoimidazol-1-yl]-piperidin-1-yl}-benzonitrile], the IC50 came out at 1350 nM.

`COc1cccc2c1n(Cc1ncccc1C(F)(F)F)c(=O)n2C1CCN(c2c(C)cccc2C)CC1` [Example 75, 1-[1-(2,6-Dimethyl-phenyl)-piperidin-4-yl]-4-methoxy-3-(3-trifluoromethyl-pyridin-2-ylmethyl)-1,3-dihydro-benzoimidazol-2-one]: the IC50 was found to be 27 nM.

In the case of `COc1cncc(OC)c1N1CC[C@@H](n2c(=O)n(Cc3ccccc3C(F)(F)F)c3c(OC)cccc32)C1` [Example 38, 1-[(R)-1-(3,5-Dimethoxy-pyridin-4-yl)-pyrrolidin-3-yl]-4-methoxy-3-(2-trifluoromethyl-benzyl)-1,3-dihydro-benzoimidazol-2-one], the IC50 came to 470 nM.

The values above are taken from US11739070B2, “C5A receptor modulators” (IDORSIA PHARMACEUTICALS LTD, priority 2018, dated 2023).
